Counter-ions that a name gives are not always drawn.
What was measured:
[1] = target: T1, recombinant human 5-HT6 receptor (Homo sapiens, UniProt P50406); test: Radioligand binding, [3H]LSD competition, membranes of HEK293 cells expressing 5-HT6; conditions: HEK293 cell membranes, pH 7.4, 37° C., 75 min, read-out: pKi for 5-HT6 (converted)
T1 construct: expressed in transfected cells; membranes
Description: (§1) The binding activity of compounds of this invention in vitro was determined as follows. Duplicate determinations of 5-HT6 ligand affinity were made by competing for binding of [^3H]LSD in cell membranes derived from HEK293 cells stably expressing recombinant human 5-HT6 receptor. Duplicate determinations of 5-HT2A ligand affinity were made by competing for binding of [^3H]Ketanserin (3-(2-(4-(4-fluorobenzoyl)piperidinol)ethyl)-2,4(1H,3H)-quinazolinedione) in cell membranes derived from CHO-K1 cells stably expressing recombinant human 5-HT2A receptor. Membranes were prepared from HEK 293 cell lines by the method described by Monsma et al., Molecular Pharmacology, Vol. 43 pp. 320-327 (1993), and from CHO-K1 cell lines as described by Bonhaus et al., Br J Pharmacol. June; 115(4):622-8 (1995).
(§2) For estimation of affinity at the 5-HT6 receptor, all determinations were made in assay buffer containing 50 mM Tris-HCl, 10 mM MgSO4, 0.5 mM EDTA, 1 mM ascorbic acid, pH 7.4 at 37° C., in a 250 microliter reaction volume. […]
(§3) Assay tubes containing [^3H] […] LSD or [^3H]Ketanserin were determined as radioactive counts per minute using Packard TopCount.
(§4) Displacement of [^3H]LSD or [^3H]Ketanserin from the binding sites was quantified by fitting concentration-binding data to a 4-parameter logistic equation: […]

[2] = target: T2, recombinant human 5-HT2A receptor (Homo sapiens, UniProt P28223); test: Radioligand binding, [3H]Ketanserin competition, membranes of CHO-K1 cells expressing 5-HT2A; conditions: CHO-K1 cell membranes, pH 7.4, 32° C., 60 min, read-out: pKi for 5-HT2A (converted)
T2 construct: expressed in transfected cells; membranes
T2 sequence (P28223 whole entry): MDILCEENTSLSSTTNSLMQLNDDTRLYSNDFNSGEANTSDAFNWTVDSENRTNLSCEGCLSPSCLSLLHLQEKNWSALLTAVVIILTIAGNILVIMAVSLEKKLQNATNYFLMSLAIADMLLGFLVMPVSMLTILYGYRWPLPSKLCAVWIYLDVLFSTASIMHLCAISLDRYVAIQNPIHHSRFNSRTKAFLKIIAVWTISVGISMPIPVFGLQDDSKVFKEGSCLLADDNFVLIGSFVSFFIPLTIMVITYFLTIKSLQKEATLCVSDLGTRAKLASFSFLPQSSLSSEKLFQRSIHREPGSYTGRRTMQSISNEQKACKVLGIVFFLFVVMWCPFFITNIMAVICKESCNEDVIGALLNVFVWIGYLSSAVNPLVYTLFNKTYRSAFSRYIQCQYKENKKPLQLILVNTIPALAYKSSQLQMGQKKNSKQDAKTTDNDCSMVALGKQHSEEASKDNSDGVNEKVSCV
Description: as §1, §2, §3, §4

T1 sequence (P50406 whole entry): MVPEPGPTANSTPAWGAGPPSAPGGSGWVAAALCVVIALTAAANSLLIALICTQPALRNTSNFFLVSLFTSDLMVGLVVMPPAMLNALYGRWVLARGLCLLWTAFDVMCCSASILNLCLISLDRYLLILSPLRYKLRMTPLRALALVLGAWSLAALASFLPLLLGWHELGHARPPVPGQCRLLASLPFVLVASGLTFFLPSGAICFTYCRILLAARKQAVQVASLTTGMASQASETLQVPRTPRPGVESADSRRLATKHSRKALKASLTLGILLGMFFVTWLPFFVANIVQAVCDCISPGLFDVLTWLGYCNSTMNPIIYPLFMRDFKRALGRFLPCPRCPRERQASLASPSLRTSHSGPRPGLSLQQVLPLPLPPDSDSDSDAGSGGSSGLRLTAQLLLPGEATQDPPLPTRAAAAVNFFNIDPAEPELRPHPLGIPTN

| SMILES | melting point [°C] | Ki [1] [nM] | Ki [2] [nM] |
| --- | --- | --- | --- |
| O=S(=O)(c1ccccc1)c1ccc2c(c1)OCCC2N1CCNCC1 (stereo not drawn) (as salt: HCl) [Compound 1, 1-(7-Benzenesulfonyl-chroman-4-yl)-piperazine] | 243 to 249 | – | – |
| O=S(=O)(c1ccccc1)c1ccc2c(c1)OCCC2N1CCNCC1 (stereo not drawn) [Compound 1, 1-(7-Benzenesulfonyl-chroman-4-yl)-piperazine] | – | ~0.417 | ~46.8 |

Source: patent publication US7528250B2, “Chroman derivatives and uses thereof” (Roche Palo Alto LLC, priority 2004, dated 2009)
